# Measured values: DBAASP
# Tests used:
# Assay in all cases: ≥ marks a high value that may be exact or a test limit, other limits are often not marked, values filed in µg/mL are converted to µM
# Escherichia coli = test system: Escherichia coli
# Bacillus megaterium Bm11 = test system: Bacillus megaterium Bm11
# Escherichia coli ML-35 = test system: Escherichia coli ML-35
# Proteus mirabilis = test system: Proteus mirabilis
# [1] = test system: Staphylococcus aureus ATCC 25923
# [2] = test system: Salmonella enterica subsp. enterica serovar Typhimurium ATCC 14028
# Staphylococcus aureus = test system: Staphylococcus aureus
# [3] = test system: Staphylococcus aureus CCARM 3518
# [4] = test system: Escherichia coli CCARM 1238
# [5] = test system: Escherichia coli ATCC 25922
# [6] = test system: Trichosporon beigelii KCTC 7707
# [7] = test system: Candida albicans KCTC 7270
# [8] = test system: Bacillus subtilis KCTC 1998
# [9] = test system: Pseudomonas aeruginosa ATCC 27853
# [10] = test system: Salmonella typhimurium KCTC 1926
# [11] = test system: Listeria monocytogenes KCTC 3710
# [12] = test system: Pseudomonas aeruginosa 4007
# [13] = test system: Staphylococcus aureus CCARM 3090
# [14] = test system: Escherichia coli CCARM 1229
# [15] = test system: Pseudomonas aeruginosa 4891
# [16] = test system: Escherichia coli CGSC 4908
# [17] = test system: Salmonella enterica serovar typhimurium MS7953s
# Candida albicans C627 = test system: Candida albicans C627
# [18] = test system: Staphylococcus aureus C623
# [19] = test system: Pseudomonas aeruginosa K799
# [20] = test system: Aeromonas salmonicida 99-1
# Escherichia coli UB1005 = test system: Escherichia coli UB1005
# Escherichia coli DC2 = test system: Escherichia coli DC2
# [21] = test system: Salmonella enterica subsp. enterica serovar Typhimurium ATCC 14028s
# [22] = test system: Aeromonas salmonicida 97-4
# [23] = test system: Staphylococcus epidermidis C621
# [24] = test system: Pseudomonas aeruginosa Z61
# Candida glabrata = test system: Candida glabrata
# Candida albicans = test system: Candida albicans
# Candida krusei = test system: Candida krusei
# Candida tropicalis = test system: Candida tropicalis
# Candida parapsilosis = test system: Candida parapsilosis
# [25] = test system: Candida albicans ATCC 10231
# [26] = test system: Staphylococcus aureus ATCC 33592
MIC [1],MIC [3],MIC [4],MIC [5],MIC [6],MIC [7],MIC [8],MIC [9],MIC [10],MIC [11],MIC [12],MIC [13],MIC [14],MIC [15],also measured,SMILES
8 µM,,,,,,,,,,,,,,MIC (Escherichia coli): 4 µM; MIC (Bacillus megaterium Bm11): 4 µM; MIC (Escherichia coli ML-35): 8 µM; MIC (Proteus mirabilis): ≥ 32 µM; MIC [2]: 8 µM; MIC (Staphylococcus aureus): 2 µM,CC[C@H](C)[C@H](NC(=O)CN)C(=O)N[C@@H](CC(C)C)C(=O)N[C@@H](CO)C(=O)N[C@@H](CCCCN)C(=O)N[C@@H](CC(C)C)C(=O)NCC(=O)N[C@@H](CCCCN)C(=O)N[C@@H](C)C(=O)N[C@@H](CC(C)C)C(=O)N[C@@H](CCCCN)C(=O)N[C@@H](CCCCN)C(=O)N[C@@H](C)C(=O)N[C@@H](C)C(=O)N[C@@H](CCCCN)C(=O)N[C@@H](Cc1cnc[nH]1)C(=O)N[C@@H](C)C(=O)N[C@@H](C)C(=O)N[C@@H](CCCCN)C(=O)N[C@@H](C)C=O [GILSKLGKALKKAAKHAAKA]
32 µM,≥ 64 µM,≥ 32 µM,16 µM,≥ 64 µM,≥ 64 µM,≥ 32 µM,16 µM,16 µM,≥ 32 µM,≥ 64 µM,≥ 64 µM,≥ 32 µM,≥ 64 µM,,CC[C@H](C)[C@H](NC(=O)CNC(=O)[C@H](CCC(N)=O)NC(=O)[C@H](CO)NC(=O)[C@@H](NC(=O)[C@H](CCCCN)NC(=O)[C@H](CCCCN)NC(=O)[C@H](CC(C)C)NC(=O)[C@H](C)NC(=O)[C@H](CC(N)=O)NC(=O)[C@H](CC(C)C)NC(=O)CN)C(C)C)C(=O)N[C@@H](Cc1cnc[nH]1)C(=O)N[C@@H](CCC(=O)O)C(=O)N[C@@H](C)C(=O)N[C@H](C(=O)N[C@@H](CCCCN)C(=O)N[C@@H](CC(C)C)C(=O)N[C@H](C(=O)N[C@@H](CC(N)=O)C(=O)N[C@@H](CC(N)=O)C(=O)N[C@@H](Cc1cnc[nH]1)C(=O)N[C@H](C(=O)N[C@@H](CCC(N)=O)C(N)=O)C(C)C)[C@@H](C)CC)[C@@H](C)CC [GLNALKKVSQGIHEAIKLINNHVQ]
,,,,,,,,,,,,,,MIC [16]: 0.7 µM; MIC [17]: 0.7 µM; MIC (Candida albicans C627): 1.4 µM; MIC [18]: 5.6 µM; MIC [19]: 1.4 µM; MIC [20]: 0.7 µM; MIC (Escherichia coli UB1005): 2.8 µM; MIC (Escherichia coli DC2): 0.7 µM; MIC [21]: 2.8 µM; MIC [22]: 0.7 µM; MIC [23]: 2.8 µM; MIC [24]: 0.35 µM,CC(=O)[C@H](CC(C)C)NC(=O)[C@H](Cc1ccc(O)cc1)NC(=O)[C@H](Cc1cnc[nH]1)NC(=O)[C@H](CC(=O)O)NC(=O)[C@@H](NC(=O)[C@H](C)NC(=O)[C@H](CC(C)C)NC(=O)CNC(=O)CNC(=O)[C@@H](NC(=O)[C@@H](NC(=O)[C@H](CCCCN)NC(=O)CNC(=O)[C@@H](NC(=O)[C@H](CCCCN)NC(=O)[C@H](CCCCN)NC(=O)[C@H](C)NC(=O)[C@H](CCCNC(=N)N)NC(=O)[C@H](CC(N)=O)NC(=O)[C@H](Cc1ccccc1)NC(=O)[C@H](Cc1c[nH]c2ccccc12)NC(=O)[C@H](CCCCN)NC(=O)[C@H](CCCCN)NC(=O)[C@H](Cc1c[nH]c2ccccc12)NC(=O)CN)C(C)C)[C@@H](C)O)C(C)C)C(C)C [GWKKWFNRAKKVGKTVGGLAVDHYL]
,,,,,,,,,,,,,,MIC (Candida glabrata): ≥ 50 µM; MIC (Candida albicans): 25 µM; MIC (Candida krusei): 25 µM; MIC (Candida tropicalis): 12.5 µM; MIC (Candida parapsilosis): 25 µM; MIC [25]: 25 µM,CC[C@H](C)[C@H](NC(=O)[C@@H](NC(=O)CNC(=O)[C@H](CCCN=C(N)N)NC(=O)[C@H](CCC(N)=O)NC(=O)[C@H](Cc1cnc[nH]1)NC(=O)[C@H](CC(C)C)NC(=O)[C@H](CCCN=C(N)N)NC(=O)[C@@H](NC(=O)[C@H](CC(C)C)NC(=O)[C@@H](NC(=O)[C@@H](NC(=O)[C@H](CC(C)C)NC(=O)[C@H](CC(C)C)NC(=O)[C@@H](N)C(C)C)C(C)C)[C@@H](C)O)[C@@H](C)O)C(C)C)C(=O)N[C@@H](Cc1ccc(O)cc1)C(=O)N[C@@H](CCCN=C(N)N)C(=O)N[C@@H](CCCCN)C(=O)N[C@@H](Cc1c[nH]c2ccccc12)C(=O)N[C@@H](CCCN=C(N)N)C(=O)N[C@@H](Cc1cnc[nH]1)C(=O)N[C@@H](Cc1ccccc1)C(=O)N[C@@H](CO)C(=O)NCC(=O)N[C@@H](CCCN=C(N)N)C(=O)N[C@@H](CCCCN)C(=O)N[C@@H](Cc1ccc(O)cc1)C(=O)N[C@@H](CCCN=C(N)N)C(=O)O [VLLVTLTRLHQRGVIYRKWRHFSGRKYR]
,,,,,,,,,,,,,,MIC [26]: ≥ 32 µM,CC[C@H](C)[C@H](NC(=O)[C@H](Cc1c[nH]c2ccccc12)NC(C)=O)C(=O)N[C@@H](CCCCN)C(=O)N[C@@H](CCCN=C(N)N)C(=O)N[C@@H](CC(C)C)C(=O)N[C@@H](CC(N)=O)C(=O)N[C@@H](CO)C(=O)N[C@@H](Cc1c[nH]c2ccccc12)C(=O)N[C@@H](CC(C)C)C(=O)N[C@@H](CCCN=C(N)N)C(=O)N[C@@H](CCCCN)C(N)=O [WIKRLNSWLRK]
32 µM,≥ 32 µM,16 µM,16 µM,≥ 64 µM,≥ 64 µM,≥ 32 µM,16 µM,16 µM,≥ 32 µM,16 µM,≥ 32 µM,16 µM,16 µM,,CC[C@H](C)[C@H](NC(=O)CNC(=O)[C@H](CCC(N)=O)NC(=O)[C@H](Cc1ccccc1)NC(=O)[C@@H](NC(=O)[C@H](CCCCN)NC(=O)[C@H](CCCCN)NC(=O)[C@H](CC(C)C)NC(=O)[C@H](C)NC(=O)[C@H](CC(N)=O)NC(=O)[C@H](CC(C)C)NC(=O)[C@@H](N)Cc1c[nH]c2ccccc12)C(C)C)C(=O)N[C@@H](Cc1cnc[nH]1)C(=O)N[C@@H](CCC(=O)O)C(=O)N[C@@H](C)C(=O)N[C@H](C(=O)N[C@@H](CCCCN)C(=O)N[C@@H](CC(C)C)C(=O)N[C@H](C(=O)N[C@@H](CC(N)=O)C(=O)N[C@@H](CC(N)=O)C(=O)N[C@@H](Cc1cnc[nH]1)C(=O)N[C@H](C(=O)N[C@@H](CCC(N)=O)C(N)=O)C(C)C)[C@@H](C)CC)[C@@H](C)CC [WLNALKKVFQGIHEAIKLINNHVQ]
